Data on 50 compounds can be found in patent US8143288B2, “Inhibitors of HCV replication” (priority 2005, dated 2012).

This assay concerns HCV 1b-377-neo replicon cells. The assay is described as follows: HCV replicon FRET assay. The format is cell-based. The note with it: Hepatitis C virus; HCV replicon; read-out: Activity (EC50). For orientation: A replicon is a self-replicating genome or part of one, used to study replication in cells.
With `C[C@@](O)(C(=O)N1CCC[C@H]1C(=O)Nc1ccc(/C=C/c2ccc(NC(=O)[C@@H]3CCCN3C(=O)[C@@](C)(O)c3ccccc3)cc2)cc1)c1ccccc1` [Example 299], the EC50 (in general, the concentration needed to bring the measured effect to its halfway point) lay within 0.1 to 90 nM.

In the case of `CN(C)[C@H]1C[C@@H](C(=O)Nc2ccc(/C=C/c3ccc(NC(=O)[C@@H]4C[C@H](N(C)C)CN4C(=O)OCc4ccccc4)cc3)cc2)N(C(=O)OCc2ccccc2)C1` [Example 223], the EC50 lay in the range of 0.1 to 90 nM.

Regarding `CC(=O)N1CCC[C@H]1C(=O)Nc1ccc(/C=C/c2ccc(NC(=O)[C@@H]3CCCN3C(=O)c3ccccc3NCc3ccccc3)cc2)cc1` [Example 153], the EC50 was 1000 to 10000 nM.

In the case of `O=C(Nc1ccc(/C=C/c2ccc(NS(=O)(=O)Cc3ccccc3)cc2)cc1)[C@@H]1CCCN1C(=O)Cc1ccccc1` [Example 250B], the EC50 is 100 to 1000 nM.

Take `CC(C)(C)O[C@@H]1C[C@@H](C(=O)Nc2ccc(/C=C/c3ccc(NC(=O)[C@@H]4C[C@@H](OC(C)(C)C)CN4C(=O)Cc4cccnc4)cc3)cc2)N(C(=O)Cc2cccnc2)C1` [Example 131]: the EC50 lay within 0.1 to 90 nM.

Consider `O=C(Nc1ccc(/C=C/c2ccc(NC(=O)[C@@H]3C=CCN3C(=O)Cc3ccccn3)cc2)cc1)[C@@H]1C=CCN1C(=O)Cc1ccccn1` [Example 215], for which the EC50 lay within 0.1 to 90 nM.

Consider `CN(C)C(=O)N1CCC[C@H]1C(=O)Nc1ccc(/C=C/c2ccc(NC(=O)[C@@H]3CCCN3C(=O)N(C)C)cc2)cc1` [Example 288], for which the EC50 was in the range of 100 to 1000 nM.

Turning to `Cc1cccc(-n2cnc(C(=O)N3CCC[C@H]3C(=O)Nc3ccc(/C=C/c4ccc(NC(=O)[C@@H]5CCCN5C(=O)c5cn(-c6cccc(C)n6)cn5)cc4)cc3)c2)n1` [Example 213], the EC50 was in the range of 1000 to 10000 nM.

Turning to `O=C(Nc1ccc(/C=C\c2ccc(NC(=O)[C@@H]3CCCN3C(=O)OCc3ccccc3)cc2)cc1)[C@@H]1CCCN1C(=O)OCc1ccccc1` [Example 6], the EC50 lay within 0.1 to 90 nM.

For `CCc1cccc(C)c1C(=O)N1CCC[C@H]1C(=O)Nc1ccc(/C=C/c2ccc(NC(=O)[C@@H]3CCCN3C(=O)c3c(C)cccc3CC)cc2)cc1` [Example 206], the EC50 fell in the range of 1000 to 10000 nM.

With `CC(=O)N1CC=C[C@H]1C(=O)Nc1ccc(/C=C/c2ccc(NC(=O)[C@@H]3C=CCN3C(=O)Cc3ccncc3)cc2)cc1` [Example 220], the EC50 is 1000 to 10000 nM.

Turning to `COc1ccccc1C(=O)N1CCC[C@H]1C(=O)Nc1ccc(/C=C/c2ccc(NC(=O)[C@@H]3CCCN3C(=O)Cc3cccnc3)cc2)cc1` [Example 142], the EC50 is 100 to 1000 nM.

Consider `CC(C)C(=O)N1CCC[C@H]1C(=O)Nc1ccc(/C=C/c2ccc(NC(=O)[C@@H]3CCCN3C(=O)C(C)C)cc2)cc1` [Example 39], for which the EC50 fell in the range of 100 to 1000 nM.

As to `O=C(Nc1ccc(/C=C/c2ccc(NC(=O)[C@@H]3CCCN3S(=O)(=O)Cc3cccc(C(F)(F)F)c3)cc2)cc1)[C@@H]1CCCN1S(=O)(=O)Cc1cccc(C(F)(F)F)c1` [Example 283], the EC50 fell in the range of 1000 to 10000 nM.

`CCC(=O)N1CC=C[C@H]1C(=O)Nc1ccc(/C=C/c2ccc(NC(=O)[C@@H]3C=CCN3C(=O)CC)cc2)cc1` [Example 71]: the EC50 lay within 100 to 1000 nM.

As to `COc1cccc(CCC(=O)N2CCC[C@H]2C(=O)Nc2ccc(/C=C/c3ccc(NC(=O)[C@@H]4CCCN4C(=O)CCc4cccc(OC)c4)cc3)cc2)c1` [Example 33], the EC50 lay within 100 to 1000 nM.

Take `CC(=O)N[C@@H](C)C(=O)Nc1ccc(/C=C/c2ccc(NC(=O)[C@@H]3CCCN3C(=O)Cc3ccccc3)cc2)cc1` [Example 256]: the EC50 was in the range of 100 to 1000 nM.

As for `O=C(Nc1ccc(/C=C/c2ccc(NC(=O)[C@@H]3CCCN3C(=O)c3nccc4ccccc34)cc2)cc1)[C@@H]1CCCN1C(=O)c1nccc2ccccc12` [Example 300], the EC50 lay within 0.1 to 90 nM.

With `CN(C)[C@H]1C[C@@H](C(=O)Nc2ccc(/C=C/c3ccc(NC(=O)[C@@H]4C[C@H](N(C)C)CN4C(=O)c4ccccc4NCc4ccccc4)cc3)cc2)N(C(=O)c2ccccc2NCc2ccccc2)C1` [Example 229], the half-maximal effective concentration (EC50) was in the range of 1000 to 10000 nM.

For the compound `O=C(Nc1ccc(/C=C/c2ccc(NC(=O)[C@@H]3CCCN3C(=O)OCc3ccccc3)cc2)cc1)C1CC1` [Example 293], the EC50 was 100 to 1000 nM.

Regarding `CC(C)C(=O)N1CCC[C@H]1C(=O)Nc1ccc(/C=C/c2ccc(NC(=O)[C@@H]3CCCN3C(=O)c3ccc(N(C)C)cc3)cc2)cc1` [Example 93], the EC50 lay in the range of 100 to 1000 nM.

In the case of `O=C(Nc1ccc(/C=C/c2ccc(NC(=O)[C@@H]3CCCN3C(=O)C3CC3)cc2)cc1)[C@@H]1CCCN1C(=O)C1CC1` [Example 31], the EC50 lay in the range of 0.1 to 90 nM.

For the compound `O=C(c1ccccc1)c1cccnc1C(=O)N1CCC[C@H]1C(=O)Nc1ccc(/C=C/c2ccc(NC(=O)[C@@H]3CCCN3C(=O)c3ncccc3C(=O)c3ccccc3)cc2)cc1` [Example 174], the EC50 is 100 to 1000 nM.

On to `O=C(Nc1ccc(/C=C/c2ccc(NC(=O)C3CC(=O)N(Cc4ccc(Cl)cc4)C3)cc2)cc1)C1CC(=O)N(Cc2ccc(Cl)cc2)C1` (centres unmarked) [Example 12], for which the EC50 fell in the range of 1000 to 10000 nM.

Regarding `Cc1cccc(-c2cccnc2C(=O)N2CCC[C@H]2C(=O)Nc2ccc(/C=C/c3ccc(NC(=O)[C@@H]4CCCN4C(=O)c4ncccc4-c4cccc(C)c4)cc3)cc2)c1` [Example 233], the EC50 lay in the range of 1000 to 10000 nM.

As to `CCC/C=C/c1cccnc1C(=O)N1CCC[C@H]1C(=O)Nc1ccc(/C=C/c2ccc(NC(=O)[C@@H]3CCCN3C(=O)c3ncccc3/C=C/CCC)cc2)cc1` [Example 235], the EC50 lay within 1000 to 10000 nM.

With `NCCCCC(N)C(=O)N1CCC[C@H]1C(=O)Nc1ccc(/C=C/c2ccc(NC(=O)[C@@H]3CCCN3C(=O)Cc3ccccc3)cc2)cc1` (some centres unmarked) [Example 273], the EC50 was 1000 to 10000 nM.

Consider `O=C(Nc1ccc(/C=C/c2ccc(NC(=O)[C@@H]3CCCN3C(=O)c3cccc4c3Cc3ccccc3-4)cc2)cc1)[C@@H]1CCCN1C(=O)c1cccc2c1Cc1ccccc1-2` [Example 165], for which the EC50 was 1000 to 10000 nM.

Consider `CCOc1ncccc1C(=O)N1CCC[C@H]1C(=O)Nc1ccc(/C=C/c2ccc(NC(=O)[C@@H]3CCCN3C(=O)c3cccnc3OCC)cc2)cc1` [Example 160], for which the EC50 is 1000 to 10000 nM.

Turning to `O=C(Nc1ccc(/C=C/c2ccc(NC(=O)[C@@H]3CCCN3C(=O)Cc3ccccc3Oc3ccccc3)cc2)cc1)[C@@H]1CCCN1C(=O)Cc1ccccc1Oc1ccccc1` [Example 168], the EC50 fell in the range of 1000 to 10000 nM.

In the case of `CCc1ccnc(C(=O)N2CCC[C@H]2C(=O)Nc2ccc(/C=C/c3ccc(NC(=O)[C@@H]4CCCN4C(=O)c4cc(CC)ccn4)cc3)cc2)c1` [Example 188], the EC50 is 100 to 1000 nM.

As to `Cc1ccoc1C(=O)N1CCC[C@H]1C(=O)Nc1ccc(/C=C/c2ccc(NC(=O)[C@@H]3CCCN3C(=O)c3occc3C)cc2)cc1` [Example 200], the EC50 is 100 to 1000 nM.

With `O=C(Nc1ccc(/C=C/c2ccc(NC(=O)[C@@H]3CCCN3C(=O)CC3CC3)cc2)cc1)[C@@H]1CCCN1C(=O)CC1CC1` [Example 26], the EC50 fell in the range of 0.1 to 90 nM.

With `COCC(=O)N1CCC[C@H]1C(=O)Nc1ccc(/C=C/c2ccc(NC(=O)[C@@H]3CCCN3C(=O)c3ccc(N(C)C)cc3)cc2)cc1` [Example 91], the EC50 fell in the range of 100 to 1000 nM.

`O=C(Nc1ccc(/C=C/c2ccc(NC(=O)[C@@H]3CCCN3C(=O)[C@H]3CCCO3)cc2)cc1)[C@@H]1CCCN1C(=O)[C@H]1CCCO1` [Example 110]: the EC50 lay within 0.1 to 90 nM.

In the case of `O=C(Nc1ccc(/C=C/c2ccc(NC(=O)C3CC(=O)N(Cc4cccs4)C3)cc2)cc1)C1CC(=O)N(Cc2cccs2)C1` (centres unmarked) [Example 13], the EC50 is 1000 to 10000 nM.

Turning to `O=C(Nc1ccc(/C=C/c2ccc(NC(=O)[C@@H]3CCCN3C(=O)c3cccnc3Cl)cc2)cc1)[C@@H]1CCCN1C(=O)c1cccnc1Cl` [Example 191], the EC50 was 1000 to 10000 nM.

In the case of `Cc1cc(CC(=O)N2CCC[C@H]2C(=O)Nc2ccc(/C=C/c3ccc(NC(=O)[C@@H]4CCCN4C(=O)Cc4cc(C)no4)cc3)cc2)on1` [Example 36], the EC50 fell in the range of 0.1 to 90 nM.

Turning to `CSCC(=O)N1CCC[C@H]1C(=O)Nc1ccc(/C=C/c2ccc(NC(=O)[C@@H]3CCCN3C(=O)CSC)cc2)cc1` [Example 81], the EC50 fell in the range of 0.1 to 90 nM.

Regarding `O=C(Cc1ccccc1)NCC(=O)Nc1ccc(/C=C/c2ccc(NC(=O)[C@@H]3CCCN3C(=O)Cc3ccccc3)cc2)cc1` [Example 257], the EC50 was 100 to 1000 nM.

Consider `CC(=O)N1C[C@H](O)C[C@H]1C(=O)Nc1ccc(/C=C/c2ccc(NC(=O)[C@@H]3CCCN3C(=O)Cc3ccccc3)cc2)cc1` [Example 272], for which the EC50 is 100 to 1000 nM.

For `CN(C)c1ccc(C(=O)N2CCC[C@H]2C(=O)Nc2ccc(/C=C/c3ccc(NC(=O)[C@@H]4CCCN4C(=O)c4ccc(N(C)C)cc4)cc3)cc2)cc1` [Example 82], the EC50 was 1000 to 10000 nM.

Take `O=C(Nc1ccc(/C=C/c2ccc(NC(=O)[C@@H]3CCCN3C(=O)c3ccccn3)cc2)cc1)[C@@H]1CCCN1C(=O)c1ccccn1` [Example 176]: the EC50 fell in the range of 1000 to 10000 nM.

`CCC(C)NC(=O)O[C@@H]1C[C@@H](C(=O)Nc2ccc(/C=C/c3ccc(NC(=O)[C@@H]4C[C@@H](O)CN4C(=O)OCc4ccccc4)cc3)cc2)N(C(=O)OCc2ccccc2)C1` (some centres unmarked) [Example 245]: the EC50 was 1000 to 10000 nM.

In the case of `CC(=O)N1C[C@H](OC(C)(C)C)C[C@H]1C(=O)Nc1ccc(/C=C/c2ccc(NC(=O)[C@@H]3C[C@@H](OC(C)(C)C)CN3C(=O)[C@H]3CCCO3)cc2)cc1` [Example 129], the EC50 fell in the range of 100 to 1000 nM.

As for `O=C(Nc1ccc(/C=C/c2ccc(NC(=O)[C@@H]3CCCN3C(=O)Cc3ccccc3)cc2)cc1)c1ccccc1Oc1ccccc1` [Example 266], the EC50 lay in the range of 1000 to 10000 nM.

For `O=C(Nc1ccc(/C=C/c2ccc(NC(=O)[C@@H]3CCCN3S(=O)(=O)c3ccccc3OC(F)(F)F)cc2)cc1)[C@@H]1CCCN1S(=O)(=O)c1ccccc1OC(F)(F)F` [Example 280], the concentration giving a half-maximal response (EC50) was 1000 to 10000 nM.

Regarding `O=C(Nc1ccc(/C=C/c2ccc(NC(=O)[C@@H]3CCCN3C(=O)c3nc4ccccc4[nH]3)cc2)cc1)[C@@H]1CCCN1C(=O)c1nc2ccccc2[nH]1` [Example 180], the EC50 is 1000 to 10000 nM.

With `CSCC(=O)N1CCC[C@H]1C(=O)Nc1ccc(/C=C/c2ccc(NC(=O)[C@@H]3CCCN3C(=O)Cc3cccs3)cc2)cc1` [Example 99], the EC50 lay in the range of 0.1 to 90 nM.

Consider `CC(C)(C)NC(=O)O[C@@H]1C[C@@H](C(=O)Nc2ccc(/C=C/c3ccc(NC(=O)[C@@H]4C[C@@H](O)CN4C(=O)OCc4ccccc4)cc3)cc2)N(C(=O)OCc2ccccc2)C1` [Example 247], for which the EC50 lay in the range of 1000 to 10000 nM.
